Consider 21 compounds from article PMC10207366, “Screening and Biological Evaluation of Soluble Epoxide Hydrolase Inhibitors: Assessing the Role of Hydrophobicity in the Pharmacophore-Guided Search of Novel Hits” (Journal of Chemical Information and Modeling, 2023).

Like-named read-outs stand apart in the source and are kept apart here.

One assay addresses T1, mouse sEH (msEH) (Mus musculus, UniProt P34914).
T1 sequence (P34914 1-554): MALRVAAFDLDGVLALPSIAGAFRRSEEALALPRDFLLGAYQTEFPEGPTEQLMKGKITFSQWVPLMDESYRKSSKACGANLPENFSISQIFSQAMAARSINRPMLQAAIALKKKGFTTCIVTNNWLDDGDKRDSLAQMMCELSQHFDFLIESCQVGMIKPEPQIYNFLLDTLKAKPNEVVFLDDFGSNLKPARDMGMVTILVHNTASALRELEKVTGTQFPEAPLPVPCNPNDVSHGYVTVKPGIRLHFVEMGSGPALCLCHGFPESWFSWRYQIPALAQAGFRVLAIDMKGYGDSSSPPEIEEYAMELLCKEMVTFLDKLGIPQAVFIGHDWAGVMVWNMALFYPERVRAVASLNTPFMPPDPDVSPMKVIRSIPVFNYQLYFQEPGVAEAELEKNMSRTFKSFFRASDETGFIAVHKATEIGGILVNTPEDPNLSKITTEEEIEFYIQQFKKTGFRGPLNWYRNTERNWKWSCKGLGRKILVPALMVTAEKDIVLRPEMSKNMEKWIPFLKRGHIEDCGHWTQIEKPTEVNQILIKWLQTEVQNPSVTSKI
Briefly: fluorescence-based sEH IC50 assay (CMNPC substrate). The note with it: experimental. It is filed as biochemical. The procedure:
(§1) The IC50 values of the 18 compounds selected from the log P + HB and QE + R3 pharmacophore ranking were determined using a fluorescence-based assay[68] with either purified recombinant hsEH, mouse sEH (msEH), or rat sEH (rsEH). The enzyme was incubated at 30 °C with the inhibitors ([I]final = 0.4–50,000 nM) for 5 min in 100 mM sodium phosphate buffer (200 μL, pH 7.4) containing 0.1 mg/mL of […] (BSA) and 1% dimethyl sulfoxide (DMSO). The substrate (cyano(6-methoxynaphthalen-2-yl)methyl((3-phenyloxiran-2-yl)methyl)carbonate; CMNPC) was then added ([S]final = 5 μM). The activity was assessed by measuring the appearance of the fluorescent 6-methoxynaphthaldehyde product (λex = 330 nm, λem = 465 nm) every 30 s for 10 min at 30 °C on a SpectraMax M2 (Molecular Devices, CA). The results were obtained by regression analysis from a linear region of the curve.

Assay [1] deals with T2, purified recombinant hsEH (Homo sapiens, UniProt P34913).
T2 sequence (P34913 1-555): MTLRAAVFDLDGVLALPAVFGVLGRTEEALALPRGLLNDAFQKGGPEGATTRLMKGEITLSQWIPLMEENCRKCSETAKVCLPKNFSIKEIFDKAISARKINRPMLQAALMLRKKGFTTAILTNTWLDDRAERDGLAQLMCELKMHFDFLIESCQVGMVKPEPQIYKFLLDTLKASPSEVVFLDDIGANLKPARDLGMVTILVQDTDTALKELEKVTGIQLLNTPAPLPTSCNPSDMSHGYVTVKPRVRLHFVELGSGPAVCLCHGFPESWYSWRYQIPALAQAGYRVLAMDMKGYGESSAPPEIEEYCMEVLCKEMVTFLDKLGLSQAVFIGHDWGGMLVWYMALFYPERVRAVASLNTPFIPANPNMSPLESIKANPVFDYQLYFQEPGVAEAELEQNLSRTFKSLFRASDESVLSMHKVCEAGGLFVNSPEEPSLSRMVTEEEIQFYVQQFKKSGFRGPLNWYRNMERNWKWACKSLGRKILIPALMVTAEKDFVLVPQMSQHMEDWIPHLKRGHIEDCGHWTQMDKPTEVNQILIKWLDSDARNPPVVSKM
The assay is described as above. Type of assay: biochemical. The protocol:
as §1

The target of the next assay is T3, rat sEH (rsEH) (Rattus norvegicus, UniProt P80299).
T3 sequence (P80299 1-554): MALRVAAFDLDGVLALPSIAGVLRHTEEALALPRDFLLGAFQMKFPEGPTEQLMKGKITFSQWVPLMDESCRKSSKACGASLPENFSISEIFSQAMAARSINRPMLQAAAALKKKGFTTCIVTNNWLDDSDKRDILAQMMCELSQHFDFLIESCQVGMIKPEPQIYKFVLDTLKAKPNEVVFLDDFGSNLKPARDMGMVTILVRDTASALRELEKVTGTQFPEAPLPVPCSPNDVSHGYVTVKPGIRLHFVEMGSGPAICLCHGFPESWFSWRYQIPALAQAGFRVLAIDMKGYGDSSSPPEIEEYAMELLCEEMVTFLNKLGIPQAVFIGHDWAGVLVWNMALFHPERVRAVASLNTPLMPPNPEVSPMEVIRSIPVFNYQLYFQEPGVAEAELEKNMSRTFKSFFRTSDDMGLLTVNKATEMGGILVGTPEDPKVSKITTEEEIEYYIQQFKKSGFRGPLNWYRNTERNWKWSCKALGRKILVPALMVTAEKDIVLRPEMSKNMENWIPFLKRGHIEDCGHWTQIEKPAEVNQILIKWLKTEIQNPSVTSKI
Described as above. It is filed as biochemical. The conditions noted are these: experimental. The procedure:
as §1

For the next assay, the system named is hsEH. The note with it: training set, Table S1; ref reference publication (DOI) of Table S1; cited from earlier work.
Setting [2] is: experimental, human sEH, read-out: pIC50 hsEH (converted).

As for `Cc1ccc(C(C)C)c(OCc2ccc(C(=O)NNC(=O)NC34CC5CC(CC(C5)C3)C4)o2)c1` [AK-968/15603026, Cc1ccc(C(C)C)c(OCc2ccc(C(=O)NNC(=O)NC34CC5CC(CC(C5)C3)C4)o2)c1], the IC50 on mouse sEH (msEH) was 316 nM; in assay [1] (setting [2]), 126 nM; against rat sEH (rsEH), 39.8 nM.
Turning to `O=C(N/N=C/c1c2ccccc2cc2ccccc12)NC12CC3CC(CC(C3)C1)C2` [AK-968/40204236, O=C(N/N=C/c1c2ccccc2cc2ccccc12)NC12CC3CC(CC(C3)C1)C2], at mouse sEH (msEH), the “pIC50 msEH” value is listed as 5.8. For the same compound, the “pIC50 rsEH” value against rat sEH (rsEH) is given as 6.5.
For `O=C(NCCC(c1ccccc1)c1ccccc1)NC1CCCCC1` [AK-968/41927527, O=C(NCCC(c1ccccc1)c1ccccc1)NC1CCCCC1], the IC50 against mouse sEH (msEH) was 1.26 nM; in assay [1] (setting [2]), 0.398 nM; against rat sEH (rsEH) it was 0.398 nM. Moreover, the “IC50 hsEH” value in assay [1] (human enzyme) was “subnanomolar”.
Take `O=C(CSc1nc(-c2ccccc2)cn1-c1ccccc1)NC(=O)Nc1ccccc1` [AO-476/43362680, O=C(CSc1nc(-c2ccccc2)cn1-c1ccccc1)NC(=O)Nc1ccccc1]: the IC50 at mouse sEH (msEH) was 25100 nM; in assay [1] (setting [2]), 3980 nM; against rat sEH (rsEH), 25100 nM.
For the compound `O=C(NC1CCC(Oc2ccc(C(=O)O)cc2)CC1)NC12CC3CC(CC(C3)C1)C2` (stereo not drawn) [TR_mol5, 4-[(trans-4-{[(3s,5s,7s)-tricyclo[3.3.1.1∼3,7∼]dec-1-ylcarbamoyl]amino}cyclohexyl)oxy]benzoic acid], the pIC50 in the assay on hsEH is 8.9.
With `O=C(Nc1ccc2c(c1)-c1ccccc1S2(=O)=O)N1CCC(F)(F)CC1` [TR_mol15, N-(5,5-dioxodibenzothiophen-2-yl)-4,4-difluoro-piperidine-1-carboxamide], the negative-log IC50 (pIC50) with hsEH is reported as 7.8.
On to `O=C(NC[C@H]1COc2ccccc2O1)c1ccc2c(c1)N(Cc1cccc(Cl)c1)C(=O)CS2` [TR_mol17, 4-[(3-chlorophenyl)methyl]-N-[[(3S)-2,3-dihydro-1,4-benzodioxin-3-yl]methyl]-3-oxidanylidene-1,4-benzothiazine-6-carboxamide], for which the pIC50 with hsEH was 7.5.
Turning to `O=C(O)CCCNC(=O)NC1CCCCC1` [TR_mol23], the pIC50 with hsEH is 3.3.
Regarding `O=C(O)CCCCCNC(=O)NC1CCCCC1` [TR_mol33], the pIC50 in the assay with hsEH is 3.6.
For the compound `O=C(COC(=O)c1ccc(N2CCCC2=O)cc1)NC(=O)NC12CC3CC(CC(C3)C1)C2` [Z23294293, O=C(COC(=O)c1ccc(N2CCCC2=O)cc1)NC(=O)NC12CC3CC(CC(C3)C1)C2], the results for the IC50 (against mouse sEH (msEH); in assay [1] (setting [2]); against rat sEH (rsEH)) were 631 nM, 100 nM and 39.8 nM, respectively.
In the case of `O=C(NCCC(=O)N1CCN(S(=O)(=O)c2ccccc2F)CC1)NC12CC3CC(CC(C3)C1)C2` [Z29532165, O=C(NCCC(=O)N1CCN(S(=O)(=O)c2ccccc2F)CC1)NC12CC3CC(CC(C3)C1)C2], the values for the IC50 (at mouse sEH (msEH); in assay [1] (setting [2]); against rat sEH (rsEH)) were 398 nM, 501 nM and 39.8 nM, respectively.
Turning to `O=C(NNC(=O)c1ccc(COc2ccccc2)cc1)NC12CC3CC(CC(C3)C1)C2` [Z44611499, O=C(NNC(=O)c1ccc(COc2ccccc2)cc1)NC12CC3CC(CC(C3)C1)C2], the IC50 against mouse sEH (msEH) was 126 nM; in assay [1] (setting [2]) it was 6.31 nM; in assay [1] (human enzyme, read-out: IC50 hsEH), less than 20 nM; against rat sEH (rsEH), 20 nM.
For the compound `CC(C(=O)NC(=O)NC12CC3CC(CC(C3)C1)C2)N1CCN(C(=O)C2COc3ccccc3O2)CC1` (stereo not shown) [Z65159029, CC(C(=O)NC(=O)NC12CC3CC(CC(C3)C1)C2)N1CCN(C(=O)C2COc3ccccc3O2)CC1], the IC50 at mouse sEH (msEH) is 20000 nM; in assay [1] (setting [2]), 5010 nM; at rat sEH (rsEH), 2000 nM.
The like results for `O=C(NCc1ccc(N2CCCC2=O)cc1)NCc1cccc(C(F)(F)F)c1` [Z211761694, O=C(NCc1ccc(N2CCCC2=O)cc1)NCc1cccc(C(F)(F)F)c1] were, in that order, 501 nM, 200 nM and 200 nM.
As for `CC(NC(=O)NCc1ccc(N2CCCC2=O)cc1)c1cccc(Cl)c1` (stereo not shown) [Z211852480, CC(NC(=O)NCc1ccc(N2CCCC2=O)cc1)c1cccc(Cl)c1], the IC50 against mouse sEH (msEH) was 631 nM; in assay [1] (setting [2]), 126 nM; at rat sEH (rsEH), 501 nM.
On the same counts, the results for `CC(C)N1CCC(NC(=O)NCCC(c2ccccc2)c2ccccc2)CC1` [Z339670416, CC(C)N1CCC(NC(=O)NCCC(c2ccccc2)c2ccccc2)CC1] are 1580 nM, 100 nM and 501 nM.
The like results for `NC(=O)COc1ccc(NC(=O)NCCC(c2ccccc2)c2ccccc2)cc1` [Z339843288, NC(=O)COc1ccc(NC(=O)NCCC(c2ccccc2)c2ccccc2)cc1] were, in that order, 1.26 nM, 1.26 nM and 1 nM.
As for `O=C(NCc1ccc(-c2nc3ccccc3s2)o1)NC1CCCC(C(F)(F)F)C1` (stereo not shown) [Z353003074, O=C(NCc1ccc(-c2nc3ccccc3s2)o1)NC1CCCC(C(F)(F)F)C1], the IC50 against mouse sEH (msEH) is 10 nM; in assay [1] (setting [2]), 6.31 nM; on rat sEH (rsEH), 5.01 nM.
The like results for `CC1CCCCC1OCCNC(=O)Nc1cccc(OCc2ccccn2)c1` (stereo not shown) [Z416144030, CC1CCCCC1OCCNC(=O)Nc1cccc(OCc2ccccn2)c1] were, in that order, 200 nM, 15.8 nM and 20 nM.
Turning to `CC1CCC(NC(=O)Nc2cccc(Cn3nc4ccccn4c3=O)c2)CC1` (stereo not shown) [Z436130862, CC1CCC(NC(=O)Nc2cccc(Cn3nc4ccccn4c3=O)c2)CC1], the IC50 against mouse sEH (msEH) was 1 nM; in assay [1] (setting [2]) it was 0.794 nM; against rat sEH (rsEH), 1 nM. The “IC50 hsEH” value in assay [1] (human enzyme) is reported as “subnanomolar”.
Take `CC(=O)CCc1ccc(OCC(=O)N2CCCC(CNC(=O)Nc3ccc(C)cc3)C2)cc1` (stereo not shown) [Z1033382608, CC(=O)CCc1ccc(OCC(=O)N2CCCC(CNC(=O)Nc3ccc(C)cc3)C2)cc1]: the IC50 on mouse sEH (msEH) is 3160 nM; in assay [1] (setting [2]), 501 nM; against rat sEH (rsEH) it was 398 nM.
